Publication PMC12621043, “Un-LOK-ing a New Approach for Conformational Selective Targeting of STK10 (LOK)” (ACS Medicinal Chemistry Letters, 2025)

Experiments:
Experiment in all cases: DSF Tm panel
Format in all cases: binding
Details in all cases: 10 μM compound
FESA = molecular target: T1, FESA (Homo sapiens, UniProt P07332)
T1 construct: purchased in-house DSF kinase panel (SGC-style construct names; the trailing letter is the construct ID)

RPS6KA1A = test system: RPS6KA1A
MAPK1A = molecular target: T2, MAPK1A (Homo sapiens, UniProt P28482)
T2 construct: purchased in-house DSF kinase panel (SGC-style construct names; the trailing letter is the construct ID)
T2 sequence (P28482 whole entry): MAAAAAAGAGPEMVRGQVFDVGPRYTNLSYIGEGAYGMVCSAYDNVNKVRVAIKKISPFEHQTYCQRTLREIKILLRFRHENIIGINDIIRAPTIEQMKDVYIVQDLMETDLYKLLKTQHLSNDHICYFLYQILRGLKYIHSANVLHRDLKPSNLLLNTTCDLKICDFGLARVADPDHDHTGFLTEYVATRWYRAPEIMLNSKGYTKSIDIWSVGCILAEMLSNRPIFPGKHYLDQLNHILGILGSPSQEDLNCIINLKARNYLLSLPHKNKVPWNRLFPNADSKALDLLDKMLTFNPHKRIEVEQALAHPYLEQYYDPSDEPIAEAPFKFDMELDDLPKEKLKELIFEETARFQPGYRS

GPRK5A = molecular target: T3, GPRK5A (Homo sapiens, UniProt P34947)
T3 construct: purchased in-house DSF kinase panel (SGC-style construct names; the trailing letter is the construct ID)
T3 sequence (P34947 186-514): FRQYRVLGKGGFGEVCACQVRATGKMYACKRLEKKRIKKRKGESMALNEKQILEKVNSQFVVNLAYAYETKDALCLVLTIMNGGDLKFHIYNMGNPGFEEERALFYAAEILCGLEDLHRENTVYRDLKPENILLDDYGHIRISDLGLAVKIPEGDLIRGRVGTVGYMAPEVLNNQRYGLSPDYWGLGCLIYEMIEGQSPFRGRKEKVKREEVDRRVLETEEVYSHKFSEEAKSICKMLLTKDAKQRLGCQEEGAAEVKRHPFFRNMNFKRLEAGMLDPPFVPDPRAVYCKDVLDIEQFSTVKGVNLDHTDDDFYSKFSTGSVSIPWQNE

DYRK2A = molecular target: T4, DYRK2A (Homo sapiens, UniProt Q92630)
T4 construct: purchased in-house DSF kinase panel (SGC-style construct names; the trailing letter is the construct ID)
T4 sequence (Q92630 1-601): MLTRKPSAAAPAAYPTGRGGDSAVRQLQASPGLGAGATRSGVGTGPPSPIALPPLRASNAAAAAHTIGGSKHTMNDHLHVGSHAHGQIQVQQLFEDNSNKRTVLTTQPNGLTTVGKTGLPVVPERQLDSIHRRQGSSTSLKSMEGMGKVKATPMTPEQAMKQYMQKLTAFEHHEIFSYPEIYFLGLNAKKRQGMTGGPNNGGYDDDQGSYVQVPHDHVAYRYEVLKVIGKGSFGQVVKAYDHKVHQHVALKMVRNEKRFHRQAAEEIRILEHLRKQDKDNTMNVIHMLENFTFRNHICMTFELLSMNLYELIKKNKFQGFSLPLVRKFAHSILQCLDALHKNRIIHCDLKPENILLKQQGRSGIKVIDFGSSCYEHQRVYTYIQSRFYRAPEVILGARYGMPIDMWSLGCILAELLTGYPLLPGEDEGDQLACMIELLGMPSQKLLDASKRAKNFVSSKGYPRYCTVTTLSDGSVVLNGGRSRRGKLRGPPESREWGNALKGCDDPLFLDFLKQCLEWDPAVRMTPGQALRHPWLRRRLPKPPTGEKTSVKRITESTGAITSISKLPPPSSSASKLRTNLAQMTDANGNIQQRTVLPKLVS

UKL3A (ULK3A) = molecular target: T5, UKL3A (ULK3A) (Homo sapiens, UniProt Q6PHR2)
T5 construct: purchased in-house DSF kinase panel (SGC-style construct names; the trailing letter is the construct ID)
T5 sequence (Q6PHR2 1-279): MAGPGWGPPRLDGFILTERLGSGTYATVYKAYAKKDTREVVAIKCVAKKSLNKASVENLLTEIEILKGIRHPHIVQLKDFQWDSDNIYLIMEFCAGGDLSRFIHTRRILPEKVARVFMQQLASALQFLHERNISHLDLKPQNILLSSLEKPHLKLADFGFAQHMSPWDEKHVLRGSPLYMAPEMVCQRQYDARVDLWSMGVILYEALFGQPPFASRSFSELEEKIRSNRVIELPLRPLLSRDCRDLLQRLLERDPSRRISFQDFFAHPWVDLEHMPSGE

GSK3BB = molecular target: T6, GSK3BB (Homo sapiens, UniProt P49841)
T6 construct: purchased in-house DSF kinase panel (SGC-style construct names; the trailing letter is the construct ID)
T6 sequence (P49841 35-386): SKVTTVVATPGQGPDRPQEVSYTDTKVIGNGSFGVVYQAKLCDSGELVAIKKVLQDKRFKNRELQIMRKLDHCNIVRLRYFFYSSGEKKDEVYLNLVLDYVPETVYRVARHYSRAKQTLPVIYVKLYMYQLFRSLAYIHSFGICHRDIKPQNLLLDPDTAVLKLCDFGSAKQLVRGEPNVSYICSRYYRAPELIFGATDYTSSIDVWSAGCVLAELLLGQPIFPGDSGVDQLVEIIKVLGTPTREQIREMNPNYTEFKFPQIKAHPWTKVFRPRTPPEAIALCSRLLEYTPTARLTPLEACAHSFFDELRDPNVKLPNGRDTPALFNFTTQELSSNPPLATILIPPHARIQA
Method: (§1) The synthesized urea-based derivatives were evaluated in a panel of kinases by differential scanning fluorescence (DSF) to investigate their selectivity profile. A positive ΔT m in the DSF assay indicates stabilization of the protein upon ligand binding in comparison to its apo state, with higher thermal shifts generally correlating with stronger binding. For this purpose, we used our internal kinase selectivity panel (∼90 kinases) along with staurosporine as a positive control. […] This was also reflected in the overall low selectivity score (S) throughout the series, which is determined by the ratio between the number of kinases that are stabilized above 5 °C and the total number of kinases tested (Figure ). Motivated by these findings, we further validated the entire series by orthogonal binding and activity assays to determine the in vitro and cellular potency and selectivity of the developed series in comparison to the selected reference compounds. […]
(§2) was performed as previously described.[1,2] Briefly, recombinant protein kinase domains at a concentration of 2 μM were mixed with 10 μM compound in a buffer containing 20 mM HEPES, […]
(§3) probe (1 µl per mL). Subsequently, temperature-dependent protein unfolding profiles were […]
(§4) emission filters were set to 465 nm and 590 nm, respectively. The temperature was raised with a step rate of 3 °C per minute. […]
(§5) inflection point of the transition curve. […]
(§6) previously.[3] In brief, STK10, STK3, STK4 and SLK were obtained as plasmids cloned in […]
(§7) Plasmids were transfected into
(§8) KD concentration taken from TracerDB (tracerdb.org)[4] were pipetted into white 384-well

PAK4A = molecular target: T7, PAK4A (Homo sapiens, UniProt O96013)
T7 construct: purchased in-house DSF kinase panel (SGC-style construct names; the trailing letter is the construct ID)
T7 sequence (O96013 291-591): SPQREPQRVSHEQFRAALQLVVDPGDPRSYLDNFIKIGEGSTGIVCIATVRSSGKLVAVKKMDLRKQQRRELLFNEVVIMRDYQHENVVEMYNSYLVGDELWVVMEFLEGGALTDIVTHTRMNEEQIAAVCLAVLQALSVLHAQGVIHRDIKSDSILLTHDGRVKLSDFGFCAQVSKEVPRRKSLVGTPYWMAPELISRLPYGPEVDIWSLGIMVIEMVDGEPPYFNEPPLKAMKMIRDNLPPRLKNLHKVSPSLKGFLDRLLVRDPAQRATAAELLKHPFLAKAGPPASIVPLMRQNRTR
Method: as §1, §2, §3, §4, §5, §6, §7, §8

TTKA = molecular target: T8, TTKA (Homo sapiens, UniProt P33981)
T8 construct: purchased in-house DSF kinase panel (SGC-style construct names; the trailing letter is the construct ID)
T8 sequence (P33981 519-808): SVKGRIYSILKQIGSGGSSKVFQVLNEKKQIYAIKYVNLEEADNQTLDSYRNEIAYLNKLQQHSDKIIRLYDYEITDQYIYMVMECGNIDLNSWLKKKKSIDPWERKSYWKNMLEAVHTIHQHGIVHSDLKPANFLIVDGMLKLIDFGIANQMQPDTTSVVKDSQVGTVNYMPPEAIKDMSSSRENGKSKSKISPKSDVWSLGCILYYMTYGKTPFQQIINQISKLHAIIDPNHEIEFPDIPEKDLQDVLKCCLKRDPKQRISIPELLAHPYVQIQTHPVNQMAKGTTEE
Method: as §1, §2, §3, §4, §5, §6, §7, §8

EPHA5A = molecular target: T9, EPHA5A (Homo sapiens, UniProt P54756)
T9 construct: purchased in-house DSF kinase panel (SGC-style construct names; the trailing letter is the construct ID)
T9 sequence (P54756 653-939): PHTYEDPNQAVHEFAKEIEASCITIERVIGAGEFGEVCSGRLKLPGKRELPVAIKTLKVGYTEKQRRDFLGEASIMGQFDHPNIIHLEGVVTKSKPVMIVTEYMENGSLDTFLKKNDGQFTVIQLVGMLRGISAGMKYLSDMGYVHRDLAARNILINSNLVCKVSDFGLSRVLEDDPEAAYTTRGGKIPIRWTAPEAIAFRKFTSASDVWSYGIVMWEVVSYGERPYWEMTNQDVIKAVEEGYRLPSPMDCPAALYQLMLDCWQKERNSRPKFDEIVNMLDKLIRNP
Method: as §1, §2, §3, §4, §5, §6, §7, §8

MAP2K1A = molecular target: T10, MAP2K1A (Homo sapiens, UniProt Q02750)
T10 construct: purchased in-house DSF kinase panel (SGC-style construct names; the trailing letter is the construct ID)
T10 sequence (Q02750 68-361): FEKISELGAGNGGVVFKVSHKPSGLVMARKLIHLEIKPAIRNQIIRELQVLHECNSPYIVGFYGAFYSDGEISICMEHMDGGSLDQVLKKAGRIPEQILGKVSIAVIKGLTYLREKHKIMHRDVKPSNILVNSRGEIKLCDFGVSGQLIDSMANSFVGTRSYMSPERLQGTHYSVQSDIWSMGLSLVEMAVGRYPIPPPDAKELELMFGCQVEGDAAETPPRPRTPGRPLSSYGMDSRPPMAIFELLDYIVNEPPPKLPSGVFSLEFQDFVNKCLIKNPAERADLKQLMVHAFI
Method: as §1, §2, §3, §4, §5, §6, §7, §8

FGFR1B = molecular target: T11, FGFR1B (Homo sapiens, UniProt P11362)
T11 construct: purchased in-house DSF kinase panel (SGC-style construct names; the trailing letter is the construct ID)
T11 sequence (P11362 456-767): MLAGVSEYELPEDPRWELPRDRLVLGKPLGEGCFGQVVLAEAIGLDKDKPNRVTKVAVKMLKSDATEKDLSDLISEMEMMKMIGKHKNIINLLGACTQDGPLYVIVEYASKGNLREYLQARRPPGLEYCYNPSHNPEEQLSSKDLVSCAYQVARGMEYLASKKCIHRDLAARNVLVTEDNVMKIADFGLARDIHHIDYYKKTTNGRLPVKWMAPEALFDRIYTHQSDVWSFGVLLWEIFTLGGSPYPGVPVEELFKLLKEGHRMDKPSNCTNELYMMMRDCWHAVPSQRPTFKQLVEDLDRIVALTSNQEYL
Method: as §1, §2, §3, §4, §5, §6, §7, §8

CHEK2A = molecular target: T12, CHEK2A (Homo sapiens, UniProt O96017)
T12 construct: purchased in-house DSF kinase panel (SGC-style construct names; the trailing letter is the construct ID)
T12 sequence (O96017 210-531): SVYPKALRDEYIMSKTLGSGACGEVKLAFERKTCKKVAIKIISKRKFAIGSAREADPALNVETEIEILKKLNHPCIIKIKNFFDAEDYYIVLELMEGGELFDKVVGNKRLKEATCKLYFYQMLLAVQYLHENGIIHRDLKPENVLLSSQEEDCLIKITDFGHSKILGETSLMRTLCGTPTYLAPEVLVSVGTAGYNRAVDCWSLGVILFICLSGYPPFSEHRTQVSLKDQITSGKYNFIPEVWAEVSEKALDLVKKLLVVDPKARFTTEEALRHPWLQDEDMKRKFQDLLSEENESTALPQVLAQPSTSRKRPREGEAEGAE
Method: as §1, §2, §3, §4, §5, §6, §7, §8

T1 sequence (P07332 whole entry): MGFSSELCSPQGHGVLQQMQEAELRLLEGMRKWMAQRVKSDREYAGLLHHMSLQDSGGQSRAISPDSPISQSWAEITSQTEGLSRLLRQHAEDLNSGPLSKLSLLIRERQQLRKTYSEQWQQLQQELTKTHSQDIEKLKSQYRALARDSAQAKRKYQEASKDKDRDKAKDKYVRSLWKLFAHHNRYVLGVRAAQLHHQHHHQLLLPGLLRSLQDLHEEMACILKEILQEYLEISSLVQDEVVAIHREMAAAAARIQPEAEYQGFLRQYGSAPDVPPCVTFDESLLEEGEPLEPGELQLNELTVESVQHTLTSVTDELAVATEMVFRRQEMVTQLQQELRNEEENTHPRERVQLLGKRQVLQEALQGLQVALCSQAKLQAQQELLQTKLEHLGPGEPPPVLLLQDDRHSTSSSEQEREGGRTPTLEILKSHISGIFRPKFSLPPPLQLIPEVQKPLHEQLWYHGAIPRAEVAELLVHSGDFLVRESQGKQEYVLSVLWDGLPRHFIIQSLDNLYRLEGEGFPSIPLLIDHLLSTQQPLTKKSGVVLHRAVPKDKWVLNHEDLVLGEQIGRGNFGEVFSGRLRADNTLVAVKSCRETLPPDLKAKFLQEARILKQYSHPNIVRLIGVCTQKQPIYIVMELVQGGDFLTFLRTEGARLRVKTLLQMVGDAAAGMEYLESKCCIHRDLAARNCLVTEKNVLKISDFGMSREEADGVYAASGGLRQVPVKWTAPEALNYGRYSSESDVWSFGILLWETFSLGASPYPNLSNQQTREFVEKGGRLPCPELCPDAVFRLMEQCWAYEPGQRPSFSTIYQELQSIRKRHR

| ΔTm at 10 µM (FESA) [°C] | ΔTm at 10 µM (MAPK1A) [°C] | ΔTm at 10 µM (GPRK5A) [°C] | ΔTm at 10 µM (DYRK2A) [°C] | ΔTm at 10 µM (UKL3A (ULK3A)) [°C] | ΔTm at 10 µM (GSK3BB) [°C] | ΔTm at 10 µM (PAK4A) [°C] | ΔTm at 10 µM (TTKA) [°C] | ΔTm at 10 µM (EPHA5A) [°C] | ΔTm at 10 µM (MAP2K1A) [°C] | ΔTm at 10 µM (FGFR1B) [°C] | ΔTm at 10 µM (CHEK2A) [°C] | SMILES | ΔTm RPS6KA1A (RPS6KA1A) |
| --- | --- | --- | --- | --- | --- | --- | --- | --- | --- | --- | --- | --- | --- |
| 2 | 0.7 | 0.4 | 1.5 | 4.2 | 1.2 | 1.3 | 1.4 | 0.6 | 0.6 | 1.4 | 5.8 | COc1ccccc1CNC(=O)Nc1ccc2cc1OCCOCCNc1ccn3ncc-2c3n1 [compound 29] | 0,5 °C |
| -0.2 | 0.3 | 0.8 | 1.8 | 2.7 | 1.7 | -0.3 | 0.3 | -0.5 | -0.2 | 0.7 | 0.8 | CN1CCN(C(=O)Nc2ccc3cc2OCCOCCNc2ccn4ncc-3c4n2)CC1 [compound 35] | 0,7 °C |
| 1.3 | 0.7 | 0.2 | 4.3 | 4.1 | 1.1 | 1.4 | 1.8 | 1 | 0.7 | 1.2 | 6.3 | C[C@H](NC(=O)Nc1ccc2cc1OCCOCCNc1ccn3ncc-2c3n1)c1ccccc1 [compound 34] | 0,4 °C |
| 0.8 | 0.7 | 0.7 | 1.8 | 5.9 | 0.6 | 2 | 2.4 | 1.2 | 0.7 | 1.2 | 6.8 | COc1ccc(CNC(=O)Nc2ccc3cc2OCCOCCNc2ccn4ncc-3c4n2)cc1F [compound 32] | 0,8 °C |
| 0.8 | 0.9 | 0.9 | 1.9 | 6.1 | 1 | 1.7 | 1.8 | 1.2 | 0.6 | 1.5 | 7 | COc1ccc(CNC(=O)Nc2ccc3cc2OCCOCCNc2ccn4ncc-3c4n2)cc1 [compound 31] |  |

Second part, the molecule before the results:

| SMILES | ΔTm at 10 µM (FESA) [°C] | ΔTm at 10 µM (MAPK1A) [°C] | ΔTm at 10 µM (GPRK5A) [°C] | ΔTm at 10 µM (DYRK2A) [°C] | ΔTm at 10 µM (UKL3A (ULK3A)) [°C] | ΔTm at 10 µM (GSK3BB) [°C] | ΔTm at 10 µM (PAK4A) [°C] | ΔTm at 10 µM (TTKA) [°C] | ΔTm at 10 µM (EPHA5A) [°C] | ΔTm at 10 µM (MAP2K1A) [°C] | ΔTm at 10 µM (FGFR1B) [°C] | ΔTm at 10 µM (CHEK2A) [°C] | ΔTm RPS6KA1A (RPS6KA1A) |
| --- | --- | --- | --- | --- | --- | --- | --- | --- | --- | --- | --- | --- | --- |
| O=C(NCc1cccc(Cl)c1)Nc1ccc2cc1OCCOCCNc1ccn3ncc-2c3n1 [compound 18] | 0.1 | 0.7 | 1.1 | 2.8 | 4.6 | 0 | 0.1 | 2.2 | 0.4 | 0.2 | 2 | 3.6 | 0,7 °C |
| Cc1cc(Br)ccc1CNC(=O)Nc1ccc2cc1OCCOCCNc1ccn3ncc-2c3n1 [compound 24] | 0.5 | 0.7 | 0 | 0.5 | 3.7 | -0.2 | 1.9 | 2.6 | 1.4 | 0.6 | 1.2 | 8.6 | 0,1 °C |
| O=C(NCc1ccccc1Cl)Nc1ccc2cc1OCCOCCNc1ccn3ncc-2c3n1 [compound 17] | 0.2 | 0.3 | 1.3 | 1.1 | 3.2 | 1 | 0 | 1.8 | 0.1 | -0.2 | 0.6 | 5.3 | 1,2 °C |
| O=C(NCc1ccc(C(F)(F)F)cc1)Nc1ccc2cc1OCCOCCNc1ccn3ncc-2c3n1 [compound 28] | 1 | 0.9 | 0.7 | 1.2 | 4.3 | 0.2 | 2.4 | 3.1 | 1.9 | 1 | 1.5 | 7.7 | 0,2 °C |
| Cc1ccc(F)cc1CNC(=O)Nc1ccc2cc1OCCOCCNc1ccn3ncc-2c3n1 [compound 26] | 0.3 | 0.8 | 0.1 | 2.3 | 3.9 | 0.5 | 1.8 | 1.9 | 1.1 | 0.3 | 1.9 | 7.2 | 0,3 °C |
| O=C(NCc1ccc(Cl)cc1Cl)Nc1ccc2cc1OCCOCCNc1ccn3ncc-2c3n1 [compound 20] | 0.5 | 0.8 | 1.3 | 0.6 | 2.3 | 0.6 | 0.8 | 1.2 | 0.7 | 0.8 | 0.9 | 3.6 | 0,9 °C |
| Cc1cc(Cl)ccc1CNC(=O)Nc1ccc2cc1OCCOCCNc1ccn3ncc-2c3n1 [compound 23] | 0.5 | 0.8 | 0.8 | 0.8 | 3.7 | 0.4 | 1.2 | 1.8 | 1 | 0.6 | 1.1 | 5.7 | 0,8 °C |
| O=C(NCc1ccccc1C(F)(F)F)Nc1ccc2cc1OCCOCCNc1ccn3ncc-2c3n1 [compound 27] | 0.7 | 0.9 | 0.2 | 0.8 | 4.5 | -0.2 | 2.1 | 3.5 | 1.6 | 0.7 | 1.3 | 9.9 | 0,2 °C |
